Measured values taken from patent publication US5955607A, “Sulfonamide-substituted chromans, processes for their preparation, their use as a medicament or diagnostic, and pharmaceutical preparations comprising them” (priority 1997, dated 1999).
Counter-ions that a name gives are not always drawn.

tested on: IKr; test: not given; settings: known class III antiarrhythmics; cited from earlier work

Row | Compound | block of IKr
1 | CC(C)NC[C@@H](O)c1ccc(NS(C)(=O)=O)cc1 [d-sotalol] | mainly or exclusively block IKr

tested on: K^+ (ATP) channel; test: not given; settings: cromakalim (formula A) and analogous acylamino compounds; cited from earlier work

Row | Compound | action on ATP-sensitive K^+ channels
2 | CC1(C)Oc2ccc(C#N)cc2[C@@H](N2CCCC2=O)[C@@H]1O (relative stereo) [cromakalim] | act as openers of ATP-sensitive K^+ channels

biological target: T1, human IsK protein (UniProt P15382+P70057); test: cell-based; settings: human IsK expressed in Xenopus oocytes, -10 mV voltage jumps lasting 15 s, room temperature, pH 7.5; Hill equation
T1 construct: channel formed with endogenous oocyte KCNQ1; two-microelectrode voltage clamp
T1 sequence (P70057 whole entry): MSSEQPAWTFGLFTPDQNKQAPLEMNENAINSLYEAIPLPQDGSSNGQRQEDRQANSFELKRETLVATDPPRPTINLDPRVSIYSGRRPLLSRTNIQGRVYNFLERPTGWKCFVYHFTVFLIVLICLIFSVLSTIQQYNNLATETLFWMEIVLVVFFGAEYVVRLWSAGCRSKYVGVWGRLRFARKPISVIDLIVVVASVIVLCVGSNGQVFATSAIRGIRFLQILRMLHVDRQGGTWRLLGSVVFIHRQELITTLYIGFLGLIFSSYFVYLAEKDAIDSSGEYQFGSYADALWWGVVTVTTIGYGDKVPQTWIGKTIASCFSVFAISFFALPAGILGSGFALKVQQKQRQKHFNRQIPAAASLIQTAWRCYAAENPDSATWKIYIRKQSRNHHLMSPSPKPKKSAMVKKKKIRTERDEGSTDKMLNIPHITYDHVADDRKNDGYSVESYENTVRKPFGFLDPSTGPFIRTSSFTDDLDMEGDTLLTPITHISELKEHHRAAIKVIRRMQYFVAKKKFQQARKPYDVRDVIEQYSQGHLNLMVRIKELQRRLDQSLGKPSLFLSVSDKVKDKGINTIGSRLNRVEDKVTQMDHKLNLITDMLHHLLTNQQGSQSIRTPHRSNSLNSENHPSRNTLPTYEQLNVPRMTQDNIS

Row | Compound | IC50 [µM]
3 | CCOCCOCCOC(=O)CN(C1CC(CC)(CC)Oc2ccc(C)cc21)S(=O)(=O)CC (stereo not shown) [Example 4, 2-(2-Ethoxyethoxy)ethyl [(2,2-diethyl-6-methylchroman-4-yl)-ethylsulfonylamino]acetate] | 1
4 | CCS(=O)(=O)N(CC(=O)NCCc1ccccn1)C1CC(C)(C)Oc2ccc(F)cc21 (stereo not shown) [Example 9, 2-[Ethylsulfonyl-(6-fluoro-2,2-dimethylchroman-4-yl)amino]-N-(2-pyridin-2-ylethyl)acetamide] | 1.6
5 | CCS(=O)(=O)N(CC(=O)Nc1ncccn1)C1CC(C)(C)Oc2ccc(F)cc21 (stereo not shown) [Example 24, 2-[Ethanesulfonyl-(6-fluoro-2,2-dimethylchroman-4-yl)amino]-N-pyrimidin-2-ylacetamide] | 1
6 | CCS(=O)(=O)N(CC(=O)Nc1nc2ccccc2n1C)C1CC(C)(C)Oc2ccc(F)cc21 (stereo not shown) [Example 27, 2-[Ethanesulfonyl-(6-fluoro-2,2-dimethylchroman-4-yl)amino]-N-(1-methyl-1H-benzoimidazol-2-yl)acetamide] | 2.1
7 | CC1(C)CC(N(CCCCOCC(=O)O)S(C)(=O)=O)c2cc(OCc3ccccc3)ccc2O1 (stereo not shown) [Example 34, {4-[(6-Benzyloxy-2,2-dimethylchroman-4-yl)methanesulfonylamino]butoxy}acetic acid] | ~0.7
8 | COCCOCCN(C1CC(C)(C)Oc2ccc(OCc3ccccc3)cc21)S(C)(=O)=O (stereo not shown) [Example 38, N-(6-Benzyloxy-2,2-dimethylchroman-4-yl)-N-[2-(2-methoxyethoxy)ethyl]methanesulfonamide] | 1.42
9 | CCCCOc1ccc2c(c1)C(N(CCOCCOC)S(C)(=O)=O)CC(C)(C)O2 (stereo not shown) [Example 42, N-(6-Butoxy-2,2-dimethylchroman-4-yl)-N-[2-(2-methoxyethoxy)ethyl]methanesulfonamide] | 0.34
10 | CCCCOc1ccc2c(c1)C(N(CCOCC(=O)O)S(C)(=O)=O)CC(C)(C)O2 (stereo not shown) [Example 43, {2-[(6-Butoxy-2,2-dimethylchroman-4-yl)methanesulfonylamino]ethoxy}acetic acid] | 7.8
11 | CCCCOc1ccc2c(c1)C(N(CCCOCCO)S(C)(=O)=O)CC(C)(C)O2 (stereo not shown) [Example 45, N-(6-Butoxy-2,2-dimethylchroman-4-yl)-N-[3-(2-hydroxyethoxy)propyl]methanesulfonamide] | 0.45
12 | CCCCOc1ccc2c(c1)C(N(CCCOC(=O)NCCN1CCOCC1)S(C)(=O)=O)CC(C)(C)O2 (stereo not shown) [Example 47, 3-[(6-Butoxy-2,2-dimethylchroman-4-yl)methanesulfonylamino]propyl (^2-morpholin-4-yl-ethyl)carbamate] | 0.75
13 | CCCCOc1ccc2c(c1)C(N(CC(=O)NC(=N)N)S(C)(=O)=O)CC(C)(C)O2 (stereo not shown) [Example 56, N-(6-Butoxy-2,2-dimethylchroman-4-yl)-N-(2-guanidino-2-oxoethyl)methanesulfonamide] | 3.4

Second part, the molecule after the results:

Row | IC50 [µM] | Compound
14 | 0.5 | CC1(C)Oc2ccc(Cl)cc2[C@@H](N(CC(=O)NCCc2ccccc2)S(C)(=O)=O)[C@@H]1O (relative stereo) [Example 58, 2-[(6-Chloro-3-hydroxy-2,2-dimethylchroman-4-yl)methanesulfonylamino]-N-phenethylacetamide]
15 | 0.79 | Cc1ccc2c(c1)C(N(CCCCC(=O)OCCN(C)Cc1ccccc1)S(C)(=O)=O)CC(C)(C)O2 (stereo not shown) [Example 10, 2-(Benzylmethylamino)ethyl 5-[methanesulfonyl-(2,2,6-trimethylchroman-4-yl)amino]pentanoate]
16 | 0.18 | CCS(=O)(=O)N(CC(=O)Nc1ccccn1)C1CC(C)(C)Oc2ccc(F)cc21 (stereo not shown) [Example 14, 2-[(6-Fluoro-2,2-dimethylchroman-4-yl)ethanesulfonylamino]-N-pyridin-2-ylacetamide]
17 | < 1 | CC1(C)CC(N(CC(=O)NCCc2ccccn2)S(C)(=O)=O)c2cc(OCc3ccccc3)ccc2O1 (stereo not shown) [Example 17, 2-[(6-Benzyloxy-2,2-dimethylchroman-4-yl)methanesulfonylamino]-N-(2-pyridin-2-yl-ethyl)acetamide]
18 | 0.046 | CCS(=O)(=O)N(CC(=O)NCCc1ccccc1)C1CC(C)(C)Oc2ccc(F)cc21 (stereo not shown) [Example 21, 2-[Ethanesulfonyl-(6-fluoro-2,2-dimethylchroman-4-yl)amino]-N-phenethylacetamide]
19 | 0.67 | CCS(=O)(=O)N(CC(=O)Nc1ccncc1)C1CC(C)(C)Oc2ccc(F)cc21 (stereo not shown) [Example 22, 2-[Ethanesulfonyl-(6-fluoro-2,2-dimethylchroman-4-yl)amino]-N-pyridin-4-ylacetamide]
20 | 0.55 | CCS(=O)(=O)N(CC(=O)Nc1cccnc1)C1CC(C)(C)Oc2ccc(F)cc21 (stereo not shown) [Example 23, 2-[Ethanesulfonyl-(6-fluoro-2,2-dimethylchroman-4-yl)-amino]N-pyridin-3-ylacetamide]
21 | 0.45 | CCS(=O)(=O)N(CC(=O)Nc1cnccn1)C1CC(C)(C)Oc2ccc(F)cc21 (stereo not shown) [Example 25, 2-[Ethanesulfonyl-(6-fluoro-2,2-dimethylchroman-4-yl)amino]-N-pyrazin-2-ylacetamide]
22 | 0.47 | CCCCNC(=O)CCCN(C1CC(C)(C)Oc2ccc(OCc3ccccc3)cc21)S(C)(=O)=O (stereo not shown) [Example 28, 4-[(6-Benzyloxy-2,2-dimethylchroman-4-yl)methanesulfonylamino]-N-butylbutyramide]
23 | < 1 | COCCOCCCCN(C1CC(C)(C)Oc2ccc(OCc3ccccc3)cc21)S(C)(=O)=O (stereo not shown) [Example 29, N-(6-Benzyloxy-2,2-dimethylchroman-4-yl)-N-[4-(2-methoxyethoxy)butyl]methanesulfonamide]
24 | 0.28 | CCOC(=O)CN(C)C(=O)CCCN(C1CC(C)(C)Oc2ccc(OCc3ccccc3)cc21)S(C)(=O)=O (stereo not shown) [Example 31, Ethyl ({4-[(6-benzyloxy-2,2-dimethylchroman-4-yl)methanesulfonylamino]butyryl}methylamino)acetate]
25 | 0.25 | CCOC(=O)CN(C)C(=O)CN(C1CC(C)(C)Oc2ccc(OCc3ccccc3)cc21)S(C)(=O)=O (stereo not shown) [Example 32, Ethyl ({2-[(6-benzyloxy-2,2-dimethylchroman-4-yl)methanesulfonylamino]acetyl}methylamino)acetate]
26 | 0.31 | CN(CCc1ccccc1)C(=O)CN(C1CC(C)(C)Oc2ccc(OCc3ccccc3)cc21)S(C)(=O)=O (stereo not shown) [Example 39, 2-[(6-Benzyloxy-2,2-dimethylchroman-4-yl)methanesulfonylamino]-N-methyl-N-phenethylacetamide]
27 | 0.35 | CN(CCc1ccccn1)C(=O)CN(C1CC(C)(C)Oc2ccc(OCc3ccccc3)cc21)S(C)(=O)=O (stereo not shown) [Example 40, 2-[(6-Benzyloxy-2,2-dimethylchroman-4-yl)methanesulfonylamino]-N-methyl-N-(2-pyridin-2-yl-ethyl)acetamide hydrochloride]
28 | 0.083 | CCS(=O)(=O)N(CC(=O)OCCN(C)Cc1ccccc1)C1CC(C)(C)Oc2ccc(F)cc21 (stereo not shown) [Example 49, 2-(Benzylmethylamino)ethyl [ethanesulfonyl-(6-fluoro-2,2-dimethylchroman-4-yl)amino]acetate]
29 | 0.83 | CCS(=O)(=O)N(CC(=O)Nc1nc[nH]n1)C1CC(C)(C)Oc2ccc(F)cc21 (stereo not shown) [Example 54, 2-[Ethanesulfonyl-(6-fluoro-2,2-dimethylchroman-4-yl)amino]-N-(1H-[1,2,4]triazol-3-yl)acetamide]
30 | < 1 | CCS(=O)(=O)N(CC(=O)Nc1nc2ccccc2[nH]1)C1CC(C)(C)Oc2ccc(F)cc21 (stereo not shown) [Example 61, N-(1H-Benzoimidazol-2-yl)-2-[ethanesulfonyl-(6-fluoro-2,2-dimethyl-chroman-4-yl)-amino]-acetamide]
31 | < 1 | CCS(=O)(=O)N(CC(=O)NCCN(C)Cc1ccccc1)C1CC(C)(C)Oc2ccc(F)cc21 (stereo not shown) [Example 62, N-[2-(Benzyl-methyl-amino)-ethyl]-2-[ethanesulfonyl-(6-fluoro-2,2-dimethyl-chroman-4-yl)-amino]-acetamide]
